Laboratory results: patent publication US11007270B2, “Polymer-semaxanib moiety conjugates” (Nektar Therapeutics, priority 2010, dated 2021)
One block for each compound: values may come before it.

Legend:
[1] = biological target: RET (Homo sapiens, UniProt P07949); experiment: RET kinase inhibition, Caliper screening (fluorescent substrate phosphorylation, electrophoretic separation); conditions: for RET Fold: fold of IC50 relative to sunitinib
[2] = biological target: c-Kit (Homo sapiens, UniProt P10721); experiment: c-Kit tyrosine kinase inhibition, Caliper screening (fluorescent substrate phosphorylation, electrophoretic separation); type: biochemical; conditions: for IC50: averages of replicate wells; for c-Kit Fold: fold of IC50 relative to sunitinib
[3] = biological target: VEGFR-2 (Homo sapiens, UniProt P35968); experiment: VEGFR-2 kinase inhibition, Caliper screening (fluorescent substrate phosphorylation, electrophoretic separation); conditions: for VEGFR-2 Fold: fold of IC50 relative to sunitinib
[4] = concentration 1.0E−05 (unit not given)
[5] = concentration 1.0E−06 (unit not given)
[6] = concentration 1.0E−07 (unit not given)
[7] = concentration 1.0E−08 (unit not given)
[8] = concentration 1.0E−09 (unit not given)
[9] = concentration 1.0E−10 (unit not given)
[10] = concentration 3.0E−05 (unit not given)
[11] = concentration 3.0E−06 (unit not given)
[12] = concentration 3.0E−07 (unit not given)
[13] = concentration 3.0E−08 (unit not given)
[14] = concentration 3.0E−09 (unit not given)
[15] = concentration 3.0E−10 (unit not given)

Sequence of VEGFR-2 (P35968 20-1356, species assumed): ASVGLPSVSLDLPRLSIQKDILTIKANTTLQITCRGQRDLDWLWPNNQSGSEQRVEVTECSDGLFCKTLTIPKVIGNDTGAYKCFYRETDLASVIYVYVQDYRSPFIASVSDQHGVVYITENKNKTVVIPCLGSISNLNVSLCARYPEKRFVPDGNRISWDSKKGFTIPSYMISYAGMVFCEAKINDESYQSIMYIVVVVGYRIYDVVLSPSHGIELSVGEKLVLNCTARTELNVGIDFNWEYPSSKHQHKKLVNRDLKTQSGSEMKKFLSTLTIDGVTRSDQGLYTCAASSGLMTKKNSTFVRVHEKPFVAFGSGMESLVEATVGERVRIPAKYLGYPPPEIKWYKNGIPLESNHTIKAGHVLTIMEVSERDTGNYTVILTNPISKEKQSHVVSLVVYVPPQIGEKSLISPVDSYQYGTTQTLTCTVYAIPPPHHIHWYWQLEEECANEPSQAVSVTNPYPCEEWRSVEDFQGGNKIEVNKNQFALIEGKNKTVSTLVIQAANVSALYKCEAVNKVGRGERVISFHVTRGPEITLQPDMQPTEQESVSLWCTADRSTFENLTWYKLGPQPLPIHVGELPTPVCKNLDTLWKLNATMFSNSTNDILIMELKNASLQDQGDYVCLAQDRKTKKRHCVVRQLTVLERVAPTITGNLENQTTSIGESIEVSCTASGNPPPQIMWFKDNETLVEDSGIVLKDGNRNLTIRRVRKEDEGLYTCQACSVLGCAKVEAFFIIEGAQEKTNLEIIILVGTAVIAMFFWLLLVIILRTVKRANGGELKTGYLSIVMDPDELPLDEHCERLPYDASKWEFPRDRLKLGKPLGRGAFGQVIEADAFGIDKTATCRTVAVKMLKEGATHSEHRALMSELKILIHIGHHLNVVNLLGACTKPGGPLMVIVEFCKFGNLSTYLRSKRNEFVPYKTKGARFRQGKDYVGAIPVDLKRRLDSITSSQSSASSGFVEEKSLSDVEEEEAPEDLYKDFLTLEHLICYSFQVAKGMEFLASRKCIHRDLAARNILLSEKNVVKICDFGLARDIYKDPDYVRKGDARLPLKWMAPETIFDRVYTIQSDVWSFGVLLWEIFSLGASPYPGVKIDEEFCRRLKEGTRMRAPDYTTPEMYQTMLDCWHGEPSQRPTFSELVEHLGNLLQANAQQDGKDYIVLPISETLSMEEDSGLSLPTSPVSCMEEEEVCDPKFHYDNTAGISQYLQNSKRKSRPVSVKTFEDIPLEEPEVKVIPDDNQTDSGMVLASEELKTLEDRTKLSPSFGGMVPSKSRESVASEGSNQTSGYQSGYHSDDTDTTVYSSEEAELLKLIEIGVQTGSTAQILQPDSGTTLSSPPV
Sequence of c-Kit (P10721 26-976): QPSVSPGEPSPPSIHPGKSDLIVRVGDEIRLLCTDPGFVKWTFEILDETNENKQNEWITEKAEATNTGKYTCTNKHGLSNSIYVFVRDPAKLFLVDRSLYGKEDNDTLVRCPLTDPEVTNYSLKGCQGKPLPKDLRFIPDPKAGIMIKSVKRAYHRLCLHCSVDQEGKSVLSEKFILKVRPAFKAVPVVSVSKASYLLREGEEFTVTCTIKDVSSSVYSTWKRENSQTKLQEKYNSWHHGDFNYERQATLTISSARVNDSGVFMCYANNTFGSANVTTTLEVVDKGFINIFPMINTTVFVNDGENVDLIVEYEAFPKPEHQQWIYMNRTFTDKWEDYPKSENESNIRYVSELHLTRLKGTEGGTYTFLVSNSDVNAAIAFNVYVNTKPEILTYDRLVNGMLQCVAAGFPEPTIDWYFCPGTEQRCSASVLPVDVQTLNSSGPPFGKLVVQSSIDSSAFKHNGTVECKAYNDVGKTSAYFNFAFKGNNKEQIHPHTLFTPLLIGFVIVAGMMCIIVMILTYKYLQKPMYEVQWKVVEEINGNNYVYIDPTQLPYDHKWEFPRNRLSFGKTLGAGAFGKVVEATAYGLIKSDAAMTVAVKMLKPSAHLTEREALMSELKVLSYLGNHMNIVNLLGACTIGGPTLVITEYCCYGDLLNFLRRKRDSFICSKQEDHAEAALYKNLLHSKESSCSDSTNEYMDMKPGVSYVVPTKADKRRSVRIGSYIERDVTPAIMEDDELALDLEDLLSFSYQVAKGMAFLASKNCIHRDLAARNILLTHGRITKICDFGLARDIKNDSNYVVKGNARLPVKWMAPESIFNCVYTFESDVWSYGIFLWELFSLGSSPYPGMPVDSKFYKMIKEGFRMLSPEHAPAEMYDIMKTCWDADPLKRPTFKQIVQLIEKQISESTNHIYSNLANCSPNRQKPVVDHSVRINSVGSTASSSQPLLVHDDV
Sequence of RET (P07949 29-1114, species assumed): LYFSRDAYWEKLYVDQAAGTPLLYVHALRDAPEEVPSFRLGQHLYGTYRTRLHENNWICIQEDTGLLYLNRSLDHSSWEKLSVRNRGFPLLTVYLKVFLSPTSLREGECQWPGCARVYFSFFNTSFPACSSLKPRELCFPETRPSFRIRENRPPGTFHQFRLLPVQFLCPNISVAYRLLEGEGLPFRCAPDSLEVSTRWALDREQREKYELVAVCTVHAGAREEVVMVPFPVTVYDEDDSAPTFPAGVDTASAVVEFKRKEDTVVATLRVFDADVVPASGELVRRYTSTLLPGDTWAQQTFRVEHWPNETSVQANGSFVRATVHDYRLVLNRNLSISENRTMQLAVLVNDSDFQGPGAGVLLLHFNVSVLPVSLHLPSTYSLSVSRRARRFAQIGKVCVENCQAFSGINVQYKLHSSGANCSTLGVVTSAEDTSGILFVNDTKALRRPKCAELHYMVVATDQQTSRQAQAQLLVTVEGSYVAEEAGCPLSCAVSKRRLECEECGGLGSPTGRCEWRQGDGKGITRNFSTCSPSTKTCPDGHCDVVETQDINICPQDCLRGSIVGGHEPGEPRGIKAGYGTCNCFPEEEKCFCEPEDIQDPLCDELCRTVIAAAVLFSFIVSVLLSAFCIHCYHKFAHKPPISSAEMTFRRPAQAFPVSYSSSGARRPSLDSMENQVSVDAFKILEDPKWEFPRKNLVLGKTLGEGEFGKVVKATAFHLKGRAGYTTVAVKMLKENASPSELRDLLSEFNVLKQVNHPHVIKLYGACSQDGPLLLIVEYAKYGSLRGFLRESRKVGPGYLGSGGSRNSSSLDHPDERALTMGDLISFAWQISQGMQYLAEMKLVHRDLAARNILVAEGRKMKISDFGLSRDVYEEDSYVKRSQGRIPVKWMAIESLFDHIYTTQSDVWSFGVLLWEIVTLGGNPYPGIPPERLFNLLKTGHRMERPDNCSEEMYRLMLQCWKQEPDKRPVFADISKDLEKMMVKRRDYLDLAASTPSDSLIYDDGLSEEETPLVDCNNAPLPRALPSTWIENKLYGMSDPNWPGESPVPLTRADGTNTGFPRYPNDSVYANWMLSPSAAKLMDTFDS

SMILES: COCCOCCOCCOCCOCCNC(=O)c1c(C)[nH]c(/C=C2\C(=O)Nc3ccc(F)cc32)c1C [mPEG5-semaxanib, (Z)-5-((5-fluoro-2-oxoindolin-3-ylidene)methyl)-2,4-dimethyl-1H-pyrrole-3-mPEG5-amide]
IC50 [1]: 440 nM | RET AVG % Activity at Specific Concentration [1, 4]: 0% | RET AVG % Activity at Specific Concentration [1, 5]: 29% | RET AVG % Activity at Specific Concentration [1, 6]: 84% | RET AVG % Activity at Specific Concentration [1, 7]: 99% | RET AVG % Activity at Specific Concentration [1, 8]: 98% | RET AVG % Activity at Specific Concentration [1, 9]: 98% | RET AVG % Activity at Specific Concentration [1, 10]: −1% | RET AVG % Activity at Specific Concentration [1, 11]: 6% | RET AVG % Activity at Specific Concentration [1, 12]: 59% | RET AVG % Activity at Specific Concentration [1, 13]: 95% | RET AVG % Activity at Specific Concentration [1, 14]: 102% | RET AVG % Activity at Specific Concentration [1, 15]: 99% | RET Fold [1]: 10.23 | IC50 [2]: 230 nM | c-Kit AVG % Activity at Specific Concentration [2, 4]: −1% | c-Kit AVG % Activity at Specific Concentration [2, 5]: 6% | c-Kit AVG % Activity at Specific Concentration [2, 6]: 76% | c-Kit AVG % Activity at Specific Concentration [2, 7]: 106% | c-Kit AVG % Activity at Specific Concentration [2, 8]: 100% | c-Kit AVG % Activity at Specific Concentration [2, 9]: 90% | c-Kit AVG % Activity at Specific Concentration [2, 10]: −1% | c-Kit AVG % Activity at Specific Concentration [2, 11]: 0% | c-Kit AVG % Activity at Specific Concentration [2, 12]: 37% | c-Kit AVG % Activity at Specific Concentration [2, 13]: 96% | c-Kit AVG % Activity at Specific Concentration [2, 14]: 99% | c-Kit AVG % Activity at Specific Concentration [2, 15]: 99% | c-Kit Fold [2]: 3.10

IC50 [3]: 180 nM | VEGFR-2 AVG % Activity at Specific Concentration [3, 4]: −4% | VEGFR-2 AVG % Activity at Specific Concentration [3, 5]: 12% | VEGFR-2 AVG % Activity at Specific Concentration [3, 6]: 56% | VEGFR-2 AVG % Activity at Specific Concentration [3, 7]: 88% | VEGFR-2 AVG % Activity at Specific Concentration [3, 8]: 92% | VEGFR-2 AVG % Activity at Specific Concentration [3, 9]: 86% | VEGFR-2 AVG % Activity at Specific Concentration [3, 10]: −6% | VEGFR-2 AVG % Activity at Specific Concentration [3, 11]: −4% | VEGFR-2 AVG % Activity at Specific Concentration [3, 12]: 35% | VEGFR-2 AVG % Activity at Specific Concentration [3, 13]: 89% | VEGFR-2 AVG % Activity at Specific Concentration [3, 14]: 96% | VEGFR-2 AVG % Activity at Specific Concentration [3, 15]: 97% | VEGFR-2 Fold [3]: 3.67 | IC50 [1]: 350 nM | RET AVG % Activity at Specific Concentration [1, 4]: 0% | RET AVG % Activity at Specific Concentration [1, 5]: 22% | RET AVG % Activity at Specific Concentration [1, 6]: 78% | RET AVG % Activity at Specific Concentration [1, 7]: 99% | RET AVG % Activity at Specific Concentration [1, 8]: 89% | RET AVG % Activity at Specific Concentration [1, 9]: 100% | RET AVG % Activity at Specific Concentration [1, 10]: −1% | RET AVG % Activity at Specific Concentration [1, 11]: 5% | RET AVG % Activity at Specific Concentration [1, 12]: 52% | RET AVG % Activity at Specific Concentration [1, 13]: 95% | RET AVG % Activity at Specific Concentration [1, 14]: 100% | RET AVG % Activity at Specific Concentration [1, 15]: 99% | RET Fold [1]: 8.14 | IC50 [2]: 170 nM | c-Kit AVG % Activity at Specific Concentration [2, 4]: −1% | c-Kit AVG % Activity at Specific Concentration [2, 5]: 3% | c-Kit AVG % Activity at Specific Concentration [2, 6]: 70% | c-Kit AVG % Activity at Specific Concentration [2, 7]: 97% | c-Kit AVG % Activity at Specific Concentration [2, 8]: 99% | c-Kit AVG % Activity at Specific Concentration [2, 9]: 97% | c-Kit AVG % Activity at Specific Concentration [2, 10]: −1% | c-Kit AVG % Activity at Specific Concentration [2, 11]: −1% | c-Kit AVG % Activity at Specific Concentration [2, 12]: 24% | c-Kit AVG % Activity at Specific Concentration [2, 13]: 94% | c-Kit AVG % Activity at Specific Concentration [2, 14]: 93% | c-Kit AVG % Activity at Specific Concentration [2, 15]: 100% | c-Kit Fold [2]: 2.30
SMILES: COCCOCCOCCOCCNC(=O)c1c(C)[nH]c(/C=C2\C(=O)Nc3ccc(F)cc32)c1C [mPEG4-semaxanib, (Z)-5-((5-fluoro-2-oxoindolin-3-ylidene)methyl)-2,4-dimethyl-1H-pyrrole-3-mPEG4-amide]

IC50 [3]: 310 nM | VEGFR-2 AVG % Activity at Specific Concentration [3, 4]: −3% | VEGFR-2 AVG % Activity at Specific Concentration [3, 5]: 19% | VEGFR-2 AVG % Activity at Specific Concentration [3, 6]: 80% | VEGFR-2 AVG % Activity at Specific Concentration [3, 7]: 95% | VEGFR-2 AVG % Activity at Specific Concentration [3, 8]: 95% | VEGFR-2 AVG % Activity at Specific Concentration [3, 9]: 98% | VEGFR-2 AVG % Activity at Specific Concentration [3, 10]: −6% | VEGFR-2 AVG % Activity at Specific Concentration [3, 11]: 0% | VEGFR-2 AVG % Activity at Specific Concentration [3, 12]: 46% | VEGFR-2 AVG % Activity at Specific Concentration [3, 13]: 90% | VEGFR-2 AVG % Activity at Specific Concentration [3, 14]: 93% | VEGFR-2 AVG % Activity at Specific Concentration [3, 15]: 94% | VEGFR-2 Fold [3]: 6.33 | IC50 [1]: 620 nM | RET AVG % Activity at Specific Concentration [1, 4]: 2% | RET AVG % Activity at Specific Concentration [1, 5]: 38% | RET AVG % Activity at Specific Concentration [1, 6]: 85% | RET AVG % Activity at Specific Concentration [1, 7]: 98% | RET AVG % Activity at Specific Concentration [1, 8]: 99% | RET AVG % Activity at Specific Concentration [1, 9]: 98% | RET AVG % Activity at Specific Concentration [1, 10]: 0% | RET AVG % Activity at Specific Concentration [1, 11]: 14% | RET AVG % Activity at Specific Concentration [1, 12]: 68% | RET AVG % Activity at Specific Concentration [1, 13]: 93% | RET AVG % Activity at Specific Concentration [1, 14]: 99% | RET AVG % Activity at Specific Concentration [1, 15]: 98% | RET Fold [1]: 14.42 | IC50 [2]: 320 nM | c-Kit AVG % Activity at Specific Concentration [2, 4]: −1% | c-Kit AVG % Activity at Specific Concentration [2, 5]: 11% | c-Kit AVG % Activity at Specific Concentration [2, 6]: 82% | c-Kit AVG % Activity at Specific Concentration [2, 7]: 96% | c-Kit AVG % Activity at Specific Concentration [2, 8]: 97% | c-Kit AVG % Activity at Specific Concentration [2, 9]: 97% | c-Kit AVG % Activity at Specific Concentration [2, 10]: −1% | c-Kit AVG % Activity at Specific Concentration [2, 11]: 1% | c-Kit AVG % Activity at Specific Concentration [2, 12]: 49% | c-Kit AVG % Activity at Specific Concentration [2, 13]: 96% | c-Kit AVG % Activity at Specific Concentration [2, 14]: 98% | c-Kit AVG % Activity at Specific Concentration [2, 15]: 96% | c-Kit Fold [2]: 4.30
SMILES: COCCOCCOCCOCCOCCOCCOCCNC(=O)c1c(C)[nH]c(/C=C2\C(=O)Nc3ccc(F)cc32)c1C [mPEG7-semaxanib, (Z)-5-((5-fluoro-2-oxoindolin-3-ylidene)methyl)-2,4-dimethyl-1H-pyrrole-3-mPEG7-amide]
